Measured values reported in ChEMBL document CHEMBL4831511, “Fluorovinylsulfones and -Sulfonates as Potent Covalent Reversible Inhibitors of the Trypanosomal Cysteine Protease Rhodesain: Structure-Activity Relationship, Inhibition Mechanism, Metabolism, and In Vivo Studies” (J Med Chem, 2021).
One block for each compound: values may come before it. Calls of active or inactive are those of the source. The rule behind the calls is not given here.

Key:
[1] = biological target: T1, Rhodesain (Trypanosoma brucei rhodesiense, UniProt Q95PM0); assay: Inhibition of Trypanosoma brucei rhodesain assessed as fluorescence using Cbz-Phe-Arg-AMC as substrate measured at second inhibition step by fluorometric enzyme assays
T1 sequence (Q95PM0 whole entry): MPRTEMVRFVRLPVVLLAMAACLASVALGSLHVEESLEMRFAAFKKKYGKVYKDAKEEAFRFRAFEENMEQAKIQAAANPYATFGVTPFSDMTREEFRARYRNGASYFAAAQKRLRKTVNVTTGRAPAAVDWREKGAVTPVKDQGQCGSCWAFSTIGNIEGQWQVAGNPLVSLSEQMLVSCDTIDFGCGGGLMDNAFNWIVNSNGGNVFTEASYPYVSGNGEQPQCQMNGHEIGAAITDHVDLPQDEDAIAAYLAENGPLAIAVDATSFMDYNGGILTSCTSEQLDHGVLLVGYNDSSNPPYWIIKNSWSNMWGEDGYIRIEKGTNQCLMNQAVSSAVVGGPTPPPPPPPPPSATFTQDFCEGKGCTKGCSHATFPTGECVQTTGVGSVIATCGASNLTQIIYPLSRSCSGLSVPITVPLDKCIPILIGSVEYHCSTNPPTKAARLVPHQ

[2] = system: Trypanosoma brucei brucei; assay: Antiprotozoal activity against Trypanosoma brucei brucei BS449 assessed as luminescence incubated for 24 to 48 hrs by ATPlite assay; type: functional, organism-based
[3] = system: J774.1; assay: Cytotoxicity against mouse J774.1 cells by Alamar blue assay; type: functional
[4] = system: HeLa; assay: Cytotoxicity against human HeLa cells by Alamar blue assay; type: functional
[5] = biological target: Proteasome Macropain subunit (Homo sapiens) (UniProt P49721); assay: Inhibition of trypsin-like activity of human 20S proteasome at 11 uM using boc-Leu-Arg-Arg-AMC as fluorogenic substrate by microplate reader relative to control
Sequence of Proteasome Macropain subunit (Homo sapiens) (P49721 whole entry): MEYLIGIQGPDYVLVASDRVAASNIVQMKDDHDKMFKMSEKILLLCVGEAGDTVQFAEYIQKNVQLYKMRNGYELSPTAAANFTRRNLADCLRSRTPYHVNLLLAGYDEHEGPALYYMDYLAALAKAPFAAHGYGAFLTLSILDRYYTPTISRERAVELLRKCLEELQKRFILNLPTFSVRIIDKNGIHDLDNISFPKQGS

[6] = species on record: Homo sapiens; assay: Inhibition of caspase-like activity of human 20S proteasome at 11 uM using Cbz-Leu-Leu-Glu-AMC as fluorogenic substrate by microplate reader relative to control
[7] = species on record: Homo sapiens; assay: Inhibition of alpha-chymotrypsin-like activity of human 20S proteasome at 11 uM using Succ-Leu-Leu-Val-Tyr-AMC as fluorogenic substrate by microplate reader relative to control
[8] = biological target: T2, Procathepsin L (Homo sapiens, UniProt P07711); assay: Inhibition of human liver CatL assessed as fluorescence using Cbz-Phe-Arg-AMC as substrate measured at second inhibition step by fluorometric enzyme assays
T2 sequence (P07711 whole entry): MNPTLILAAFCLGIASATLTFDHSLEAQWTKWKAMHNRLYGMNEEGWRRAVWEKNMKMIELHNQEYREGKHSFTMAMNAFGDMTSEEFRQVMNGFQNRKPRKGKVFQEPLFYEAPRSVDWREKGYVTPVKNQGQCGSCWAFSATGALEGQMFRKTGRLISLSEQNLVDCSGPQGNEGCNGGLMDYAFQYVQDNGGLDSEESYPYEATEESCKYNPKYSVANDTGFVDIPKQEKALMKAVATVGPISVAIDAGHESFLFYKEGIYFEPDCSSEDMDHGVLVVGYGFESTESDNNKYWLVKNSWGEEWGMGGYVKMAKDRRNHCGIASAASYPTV

[9] = biological target: T3, Cathepsin B (Homo sapiens, UniProt P07858); assay: Inhibition of human liver CatB assessed as fluorescence using Cbz-Phe-Arg-AMC as substrate by fluorometric enzyme assays
[10] = system: cathepsin L (CatL) versus rhodesain; assay: Selectivity index, ratio of Ki for human liver CatL to Trypanosoma brucei rhodesain; conditions: read-out: Selectivity Index
[11] = system: Dengue virus; assay: Inhibition of Dengue virus NS2B-NS3 protease assessed as fluorescent emission using boc-Gly-Arg-Arg-AMC at 11 uM by microplate reader relative to control
[12] = biological target: T1, Rhodesain; assay: Inhibition of Trypanosoma brucei rhodesain assessed as fluorescence using Cbz-Phe-Arg-AMC as substrate measured using Dixon equation by fluorometric enzyme assays
[13] = biological target: Rhodesain (Trypanosoma brucei rhodesiense) (UniProt Q95PM0); assay: Inhibition of Trypanosoma brucei rhodesain assessed as rate constant of association using Cbz-Phe-Arg-AMC as substrate by fluorometric enzyme assays
Sequence of Rhodesain (Trypanosoma brucei rhodesiense) (Q95PM0 1-450): as the sequence (Q95PM0 whole entry) above

[14] = biological target: Rhodesain (Trypanosoma brucei rhodesiense) (UniProt Q95PM0); assay: Inhibition of Trypanosoma brucei rhodesain assessed as rate constant of dissociation of the final complex using Cbz-Phe-Arg-AMC as substrate by fluorometric enzyme assays
[15] = biological target: Rhodesain (Trypanosoma brucei rhodesiense) (UniProt Q95PM0); assay: Binding affinity to Trypanosoma brucei rhodesain assessed as protein-ligand adducts by MALDI-TOF MS analysis
[16] = biological target: T2, Procathepsin L; assay: Inhibition of human CatL assessed as fluorescence using Cbz-Phe-Arg-AMC as substrate measured using Dixon equation by fluorometric enzyme assays; design: species or system Liver
[17] = biological target: T3, Cathepsin B; assay: Inhibition of human liver CatB assessed as fluorescence using Cbz-Phe-Arg-AMC as substrate at 11 uM by fluorometric enzyme assays
[18] = biological target: Rhodesain (Trypanosoma brucei rhodesiense) (UniProt Q95PM0); assay: Reversible inhibition of Trypanosoma brucei rhodesain assessed as reversibility by measuring residual enzymatic activity using Cbz-Phe-Arg-AMC as substrate after 1 hr by fluorometry based dialysis experiment relative to control
[19] = system: Trypanosoma brucei brucei; assay: Antiprotozoal activity against Trypanosoma brucei brucei TC211 assessed as luminescence incubated for 24 to 48 hrs by ATPlite assay; type: functional, organism-based

Structure (SMILES): Cc1ccc(C[C@H](NC(=O)c2cc[n+]([O-])cc2)C(=O)N[C@H](/C=C/S(=O)(=O)Oc2ccccc2)CCc2ccccc2)cc1
Ki [1]: 1.5 nM

EC50 [2]: 14100 nM
inhibition [5]: inactive
inhibition [6]: 18%
inhibition [7]: inactive
Structure (SMILES): CSCC[C@@H](/C=C(\F)S(=O)(=O)c1ccccc1)NC(=O)[C@H](Cc1ccccc1)NC(=O)N1CCN(C)CC1
CC50 [3]: 43000 nM
CC50 [4]: 77000 nM

Structure (SMILES): CSCC[C@@H](/C=C(\F)S(=O)(=O)c1ccccc1)NC(=O)[C@H](Cc1ccccc1)NC(=O)c1ccncc1
Ki [1]: 56 nM
Ki [8]: 577 nM
Ki [9]: 1000 nM
selectivity ratio [10]: 10

Structure (SMILES): O=C(N[C@@H](Cc1ccccc1)C(=O)N[C@H](/C=C(\F)S(=O)(=O)c1ccccc1)CCc1ccccc1)c1cc(F)cc(F)c1
Ki [1]: 350 nM

EC50 [2]: 3000 nM
inhibition [5]: 14%
inhibition [6]: inactive
inhibition [7]: 71%
inhibition [11]: 13%
Structure (SMILES): CN1CCN(C(=O)N[C@@H](Cc2ccccc2)C(=O)N[C@H](/C=C(\F)S(=O)(=O)c2ccccc2)CSCc2ccccc2)CC1
CC50 [3]: 8700 nM
CC50 [4]: 8000 nM

Structure (SMILES): Cc1ccc(C[C@H](NC(=O)c2ccncc2)C(=O)N[C@H](/C=C/S(=O)(=O)Oc2ccccc2)CCc2ccccc2)cc1
Ki [1]: 0.45 nM

Structure (SMILES): O=C(N[C@@H](Cc1ccccc1)C(=O)N[C@H](/C=C(\F)S(=O)(=O)Oc1ccccc1)CCc1ccccc1)c1ccc2c(c1)OCCO2
Ki [1]: 45 nM
Ki [12]: 9 nM
K [13]: 0.045 s⁻¹
K [14]: 0.011 s⁻¹

Structure (SMILES): O=C(N[C@@H](Cc1ccccc1)C(=O)N[C@H](/C=C(/F)S(=O)(=O)Oc1ccccc1)CCc1ccccc1)c1ccncc1
Ki [1]: 525 nM
Activity [15]: Active

Structure (SMILES): O=C(N[C@@H](Cc1ccccc1)C(=O)N[C@H](/C=C(\F)S(=O)(=O)Cc1ccccc1)CCc1ccccc1)c1cc(F)cc(F)c1
Ki [1]: 124 nM

Structure (SMILES): Cc1ccc(C[C@H](NC(=O)c2ccncc2)C(=O)N[C@H](/C=C(\F)S(=O)(=O)Oc2ccccc2)CCc2ccccc2)cc1
Ki [1]: 24 nM
Ki [12]: 3 nM
Ki [8]: 313 nM
Ki [16]: 78 nM
selectivity ratio [10]: 26
inhibition [17]: 38%
K [13]: 0.075 s⁻¹
K [14]: 0.01 s⁻¹
Activity [18]: 89%
EC50 [19]: 1900 nM
CC50 [4]: > 100000 nM
inhibition [5]: 10%
inhibition [6]: 44%
inhibition [7]: 20%
inhibition [11]: inactive

Activity [15]: Active
EC50 [2]: 12500 nM
inhibition [5]: inactive
inhibition [6]: 16%
inhibition [7]: 13%
inhibition [11]: inactive
Structure (SMILES): CN1CCN(C(=O)N[C@@H](Cc2ccccc2)C(=O)N[C@H](/C=C(\F)S(=O)(=O)c2ccccc2)CCc2ccccc2)CC1
CC50 [3]: 38000 nM
CC50 [4]: 10000 nM

Structure (SMILES): Cc1cccc(C[C@H](NC(=O)c2cc(F)cc(F)c2)C(=O)N[C@H](/C=C(\F)S(=O)(=O)c2ccccc2)CCc2ccccc2)c1
Ki [1]: 329 nM

Structure (SMILES): Cc1cccc(C[C@H](NC(=O)c2ccc3c(c2)OCCO3)C(=O)N[C@H](/C=C(\F)S(=O)(=O)Oc2ccccc2)CCc2ccccc2)c1
Ki [1]: 59 nM
Ki [12]: 10 nM
K [13]: 0.074 s⁻¹
K [14]: 0.015 s⁻¹

inhibition [5]: inactive
inhibition [6]: 26%
inhibition [7]: inactive
Structure (SMILES): O=C(N[C@@H](Cc1ccccc1)C(=O)N[C@H](/C=C(\F)S(=O)(=O)c1ccccc1)CCc1ccccc1)c1ccc2c(c1)OCCO2

Structure (SMILES): Cc1ccc(C[C@H](NC(=O)c2ccc3c(c2)OCCO3)C(=O)N[C@H](/C=C(\F)S(=O)(=O)Oc2ccccc2)CCc2ccccc2)cc1
Ki [1]: 98 nM
Ki [12]: 7 nM
Ki [8]: 348 nM
Ki [16]: 39 nM
selectivity ratio [10]: 6
inhibition [17]: 14%
K [13]: 0.065 s⁻¹
K [14]: 0.005 s⁻¹
EC50 [2]: 140 nM
CC50 [4]: > 100000 nM
inhibition [5]: inactive
inhibition [6]: 31%
inhibition [7]: 22%
inhibition [11]: 11%

Structure (SMILES): Cc1ccc(C[C@H](NC(=O)c2cc(F)cc(F)c2)C(=O)N[C@H](/C=C(\F)S(=O)(=O)Oc2ccccc2)CCc2ccccc2)cc1
Ki [1]: 34 nM
Ki [12]: 5 nM
K [13]: 0.049 s⁻¹
K [14]: 0.009 s⁻¹

Structure (SMILES): O=C(N[C@@H](Cc1ccccc1)C(=O)N[C@H](/C=C(\F)S(=O)(=O)Cc1ccccc1)CCc1ccccc1)c1ccc2c(c1)OCCO2
Ki [1]: 46 nM

Structure (SMILES): O=C(N[C@@H](Cc1ccccc1)C(=O)N[C@H](/C=C(\F)S(=O)(=O)Cc1ccccc1)CCc1ccccc1)c1ccncc1
Ki [1]: 53 nM
Ki [8]: 226 nM
inhibition [17]: 44%

Structure (SMILES): Cc1cccc(C[C@H](NC(=O)c2ccc3c(c2)OCCO3)C(=O)N[C@H](/C=C(\F)S(=O)(=O)Cc2ccccc2)CCc2ccccc2)c1
Ki [1]: 92 nM

Structure (SMILES): O=C(N[C@@H](Cc1ccccc1)C(=O)N[C@H](/C=C(\F)S(=O)(=O)Oc1ccccc1)CCc1ccccc1)c1ccncc1
Ki [1]: 98 nM
Ki [12]: 15 nM
Ki [8]: 258 nM
Ki [16]: 60 nM
Ki [9]: 1700 nM
selectivity ratio [10]: 4
K [13]: 0.055 s⁻¹
K [14]: 0.01 s⁻¹
Activity [15]: Active
EC50 [2]: 4800 nM
CC50 [4]: > 100000 nM
inhibition [5]: inactive
inhibition [6]: 22%
inhibition [7]: 11%
inhibition [11]: inactive

Structure (SMILES): Cc1cccc(C[C@H](NC(=O)c2cc(F)cc(F)c2)C(=O)N[C@H](/C=C(\F)S(=O)(=O)Cc2ccccc2)CCc2ccccc2)c1
Ki [1]: 380 nM

Structure (SMILES): Cc1cccc(C[C@H](NC(=O)c2ccncc2)C(=O)N[C@H](/C=C(\F)S(=O)(=O)Oc2ccccc2)CCc2ccccc2)c1
Ki [1]: 94 nM
Ki [12]: 7 nM
Ki [8]: 266 nM
Ki [16]: 30 nM
selectivity ratio [10]: 4
inhibition [17]: 50%
K [13]: 0.062 s⁻¹
K [14]: 0.005 s⁻¹

Structure (SMILES): Cc1cccc(C[C@H](NC(=O)c2ccncc2)C(=O)N[C@H](/C=C(\F)S(=O)(=O)c2ccccc2)CCc2ccccc2)c1
Ki [1]: 25 nM
Ki [8]: 49 nM

Structure (SMILES): O=C(N[C@@H](Cc1ccccc1)C(=O)N[C@H](/C=C(\F)S(=O)(=O)Oc1ccccc1)CCc1ccccc1)OCc1ccccc1
Ki [1]: 158 nM
Activity [15]: Active

Structure (SMILES): Cc1ccc(C[C@H](NC(=O)c2cc(F)cc(F)c2)C(=O)N[C@H](/C=C(\F)S(=O)(=O)c2ccccc2)CCc2ccccc2)cc1
Ki [1]: 100 nM

Structure (SMILES): Cc1cccc(C[C@H](NC(=O)c2cc(F)cc(F)c2)C(=O)N[C@H](/C=C(\F)S(=O)(=O)Oc2ccccc2)CCc2ccccc2)c1
Ki [1]: 152 nM
Ki [12]: 21 nM
K [13]: 0.055 s⁻¹
K [14]: 0.01 s⁻¹

Structure (SMILES): Cc1ccc(C[C@H](NC(=O)c2ccc3c(c2)OCCO3)C(=O)N[C@H](/C=C(\F)S(=O)(=O)Cc2ccccc2)CCc2ccccc2)cc1
Ki [1]: 14 nM
Ki [8]: 76 nM
selectivity ratio [10]: 6
inhibition [17]: 8%

Structure (SMILES): Cc1cccc(C[C@H](NC(=O)c2ccncc2)C(=O)N[C@H](/C=C(\F)S(=O)(=O)Cc2ccccc2)CCc2ccccc2)c1
Ki [1]: 61 nM
Ki [8]: 122 nM
selectivity ratio [10]: 2

EC50 [19]: 800 nM
Structure (SMILES): Cc1ccc(C[C@H](NC(=O)c2ccc3c(c2)OCCO3)C(=O)N[C@H](/C=C(\F)S(=O)(=O)c2ccccc2)CCc2ccccc2)cc1
CC50 [4]: > 100000 nM

Structure (SMILES): Cc1cccc(C[C@H](NC(=O)c2ccc3c(c2)OCCO3)C(=O)N[C@H](/C=C(\F)S(=O)(=O)c2ccccc2)CCc2ccccc2)c1
Ki [1]: 35 nM

EC50 [2]: 180 nM
Structure (SMILES): CN1CCN(C(=O)N[C@@H](Cc2ccccc2)C(=O)N[C@H](/C=C/S(=O)(=O)c2ccccc2)CCc2ccccc2)CC1 [K-777]
CC50 [3]: 41000 nM
CC50 [4]: > 10000 nM

Structure (SMILES): Cc1ccc(C[C@H](NC(=O)c2cc(F)cc(F)c2)C(=O)N[C@H](/C=C(\F)S(=O)(=O)Cc2ccccc2)CCc2ccccc2)cc1
Ki [1]: 29 nM

Structure (SMILES): O=C(N[C@H](/C=C(\F)S(=O)(=O)Oc1ccccc1)CCc1ccccc1)[C@H](Cc1ccccc1)NC(=O)N1CCNCC1
Ki [1]: 192 nM

Activity [18]: 29%
EC50 [19]: 1900 nM
inhibition [5]: 12%
inhibition [6]: 28%
inhibition [7]: 13%
Structure (SMILES): Cc1ccc(C[C@H](NC(=O)c2ccncc2)C(=O)N[C@H](/C=C(\F)S(=O)(=O)c2ccccc2)CCc2ccccc2)cc1
CC50 [4]: > 100000 nM

Structure (SMILES): CN1CCN(C(=O)N[C@@H](Cc2ccccc2)C(=O)N[C@H](/C=C(\F)S(=O)(=O)Oc2ccccc2)CCc2ccccc2)CC1
Ki [1]: 108 nM
Activity [15]: Active
